Experimental data from patent publication US20030134851A1, “Methods and compositions for providing glutamine” (priority 2001, published 2003).

What was measured:
[1] = orally administered radiolabeled, rats; cited from earlier work
[2] = pig, in vivo
Source text: Twenty-two domestic pigs weighing 15-20 kg were acclimated to lab conditions over 4 days. The pigs were fed a standard pig diet, which followed energetic requirements for these animals (Nutrient Requirements of Swine, 9th, 1998, Subcommittee on Swine Nutrition, National Research Council) and water ad libitum. Animals were randomly assigned into group C [6 pigs, receiving a glucosaline solution (Braun cat No 622647), 5% glucose, 0.9% NaCI], group G [8 pigs, receiving the same glucosaline solution fortified with 8 g/l of Gln, (Sigma cat No G-3126)], and group N [8 pigs, receiving the same glucosaline solution fortified with 10 g/l of NAQ, (Sigma cat No A-9125)]. Before surgery, animals were fasted 15 h. The day of experiment, animals were weighed and anaesthetized using Stresnil® and penthotal. […]
The analysis for N-acetyl-L-glutamine was conducted as follows. […] The detection and quantification of N-acetyl-L-glutamine was monitored at 210 nm.
The analysis for glutamine and glutamate was conducted as follows. […] After 1 minute the sample was diluted to 1 mL and injected into the HPLC system, consisting of a 2690 Separation Module, fluorescence detector and a SupelcoSil LC-18 column (250×4 mm, 3 micrometers). […] The detection and quantification of glutamate and glutamine was accomplished using an excitation wavelength of 250 nm and monitoring emission at 395 nm. […]

In the case of `CC(=O)N[C@@H](CCC(N)=O)C(=O)O` [N-acetyl-L-glutamine], the “Absorption across the intestinal mucosa” value [1] is given as “absorbed intact” and the “Glutamine in portal blood, N group versus G group” value [2] is given as “no significant differences between G and N”.
